According to patent US12157730B2, “Heteroaryl derivative, method for producing same, and pharmaceutical composition comprising same as effective component” (VORONOI INC., priority 2019, dated 2024):

target: T1, Ba/F3 cell EGFR Exon20 ins NPH (Homo sapiens, UniProt P00533, INS773NPH); assay: Ba/F3 cell proliferation suppression, EGFR Exon20 ins NPH; format: cell-based; conditions: GI50 class; Ba/F3 cell line with NPH inserted at Exon20 of EGFR; 72 hours
T1 construct: expressed in transfected cells; host or cells: Ba/F3
Outline: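 After 72 h compound exposure (twelve 3-fold steps, 0.3 nM–50 um final), live cells were measured by CellTiter-Glo luminescence and growth expressed as % of control to derive GI50. Cells were seeded at 3000–5000 per well a day earlier; Ba/F3 medium contained IL-3; three repeats.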

Row | Ba/F3 (NPH) Activity | Compound
1 | A (GI50 < 50 nM) | C=CC(=O)Nc1cc(Nc2cc(N3OCC[C@@H]3c3cc(F)cc(F)c3)ncn2)c(OC)cc1N1CCC(N2CCN(C3CC3)C[C@@H]2C)CC1 [Example 111, N-(2-(4-((S)-4-cyclopropyl-2-methylpiperazine-1-yl)piperidine-1-yl)-5-((6-((R)-3-(3,5-difluorophenyl)isoxazolidine-2-yl)pyrimidine-4-yl)amino)-4-methoxyphenyl) acrylamide]
2 | A (GI50 < 50 nM) | C=CC(=O)Nc1cc(Nc2cc(N3OCC[C@@H]3c3ccc(Cl)c(Cl)c3)ncn2)c(OC)cc1N1C[C@@H]2C[C@H]1CO2 [compound 612, N-(2-((1S,4S)-2-oxa-5-azabicyclo[2.2.1]heptane-5-yl)-5-((6-((R)-3-(3,4-dichlorophenyl)isoxazolidine-2-yl)pyrimidine-4-l)amino)-4-methoxyphenyl) acrylamide]
3 | A (GI50 < 50 nM) | C=CC(=O)Nc1cc(Nc2cc(N3OCC[C@@H]3c3cccc(C#N)c3)ncn2)c(OC)cc1N1CCC(N2C[C@H]3C[C@@H]2CO3)CC1 [compound 389, N-(2-(4-((1R,4R)-2-oxa-5-azabicyclo[2.2.1]heptane-5-yl)piperidine-1-yl)-5-((6-((R)-3-(3-cyanophenyl)isoxazolidine-2-yl)pyrimidine-4-yl)amino)-4-methoxyphenyl) acrylamide]
4 | A (GI50 < 50 nM) | C=CC(=O)Nc1cc(Nc2cc(N3OCC[C@@H]3c3ccc(Cl)c(Cl)c3)ncn2)c(OC)cc1N1CCC(N(C)C)CC1 [compound 677, N-(5-((6-((R)-3-(3,4-dichlorophenyl)isoxazolidine-2-yl)pyrimidine-4-yl)amino)-2-(4-(dimethylamino)piperidine-1-yl)-4-methoxyphenyl) acrylamide]
5 | A (GI50 < 50 nM) | C=CC(=O)Nc1cc(Nc2cc(N3OCC[C@@H]3c3ccc(F)c(F)c3F)ncn2)c(OC)cc1N1CCC(N(C)C)CC1 [compound 573, N-(2-(4-(dimethylamino)piperidine-1-yl)-4-methoxy-5-((6-((R)-3-(2,3,4-trifluorophenyl)isoxazolidine-2-yl)pyrimidine-4-yl)amino)phenyl)acrylamide]
6 | B (50 nM ≤ GI50 < 500 nM) | C=CC(=O)Nc1cc(Nc2cc(N3OCC[C@@H]3c3cccc(F)c3)ncn2)c(OC)cc1-n1ccnc1C [compound 861, N-(5-((6-((R)-3-(3-fluorophenyl)isoxazolidine-2-yl)pyrimidine-4-yl)amino)-4-methoxy-2-(2-methyl-1H-imidazole-1-yl)phenyl)acrylamide]
7 | A (GI50 < 50 nM) | C=CC(=O)Nc1cc(Nc2cc(N3OCC[C@@H]3c3cc(F)cc(F)c3)ncn2)c(OC)cc1N1CCC(N2CCO[C@@H](C)C2)CC1 [compound 757, N-(5-((6-((R)-3-(3,5-difluorophenyl)isoxazolidine-2-yl)pyrimidine-4-yl)amino)-4-methoxy-2-(4-((S)-2-methylmorpholino)piperidine-1-yl)phenyl) acrylamide]
8 | A (GI50 < 50 nM) | C=CC(=O)Nc1cc(Nc2cc(N3OCC[C@@H]3c3ccccc3)ncn2)c(OC)cc1N1CCC(N2CC[C@@H](N(C)C)C2)CC1 [compound 787, N-(2-(4-((R)-3-(dimethylamino)pyrolidine-1-yl)piperidine-1-yl)-4-methoxy-5-((6-((R)-3-phenylisoxazolidine-2-yl)pyrimidine-4-yl)amino)phenyl) acrylamide]
9 | B (50 nM ≤ GI50 < 500 nM) | C=CC(=O)Nc1cc(Nc2cc(N3OCC[C@@H]3c3ccc(Cl)cc3)ncn2)c(OC)cc1N1CCC(N2CCC(N(C)C)CC2)CC1 [compound 808, N-(5-((6-((R)-3-(4-chlorophenyl)isoxazolidine-2-yl)pyrimidine-4-yl)amino)-2-(4-(dimethylamino)-[1,4'-bipiperidine]-1'-yl)-4-methoxyphenyl) acrylamide]
10 | A (GI50 < 50 nM) | C=CC(=O)Nc1cc(Nc2cc(N3OCC[C@@H]3c3ccc(Cl)c(Cl)c3)ncn2)c(OC)cc1N1CCOCC1 [compound 615, N-(5-((6-((R)-3-(3,4-dichlorophenyl)isoxazolidine-2-yl)pyrimidine-4-yl)amino)-4-methoxy-2-morpholinophenyl) acrylamide]
11 | A (GI50 < 50 nM) | C=CC(=O)Nc1cc(Nc2cc(N3OCC[C@@H]3c3ccccc3)ncn2)c(OC)cc1N1CCC(N2C[C@H]3C[C@@H]2CN3CC)CC1 [compound 738, N-(2-(4-((1R,4R)-5-ethyl-2,5-diazabicyclo [2.2.1]heptane-2-yl)piperidine-1-yl)-4-methoxy-5-((6-((R)-3-phenylisoxazolidine-2-yl)pyrimidine-4-yl)amino)phenyl) acrylamide]
12 | B (50 nM ≤ GI50 < 500 nM) | C=CC(=O)Nc1cc(Nc2cc(N3OCC[C@@H]3c3ccc(F)c(F)c3)ncn2)c(OC)cc1N1CCC(N2C[C@@H]3C[C@H]2CO3)CC1 [compound 497, N-(2-(4-((1S,4S)-2-oxa-5-azabicyclo[2.2.1]heptane-5-yl)piperidine-1-yl)-5-((6-((R)-3-(3,4-difluorophenyl)isoxazolidine-2-yl)pyrimidine-4-yl)amino)-4-methoxyphenyl) acrylamide]
13 | A (GI50 < 50 nM) | C#Cc1cccc([C@H]2CCON2c2cc(Nc3cc(NC(=O)C=C)c(N4CCN(C)CC4)cc3OC)ncn2)c1 [compound 617, N-(5-((6-((R)-3-(3-ethynylphenyl)isoxazolidine-2-yl)pyrimidine-4-yl)amino)-4-methoxy-2-(4-methylpiperazine-1-yl)phenyl)acrylamide]
14 | B (50 nM ≤ GI50 < 500 nM) | C=CC(=O)Nc1cc(Nc2cc(N3OCC[C@@H]3Cc3cccc(N(C)C)c3)ncn2)c(OC)cc1N1CCC(N2C[C@H]3C[C@@H]2CO3)CC1 [compound 1047, N-(2-(4-((1R,4R)-2-oxa-5-azabicyclo [2.2.1]heptane-5-yl)piperidine-1-yl)-5-((6-((S)-3-(3-(dimethylamino)benzyl)isoxazolidine-2-yl)pyrimidine-4-yl)amino)-4-methoxyphenyl) acrylamide]
15 | A (GI50 < 50 nM) | C=CC(=O)Nc1cc(Nc2cc(N3OCC[C@@H]3c3cccc(C(F)(F)F)c3)ncn2)c(OC)cc1N1CCC(N2CCOCC2)CC1 [compound 504, N-(4-methoxy-2-(4-morpholinopiperidine-1-yl)-5-((6-((R)-3-(3-(trifluoromethyl)phenyl)isoxazolidine-2-yl)pyrimidine-4-yl)amino)phenyl)acrylamide]
16 | A (GI50 < 50 nM) | C=CC(=O)Nc1cc(Nc2cc(N3OCC[C@@H]3c3ccc(F)cc3F)ncn2)c(OC)cc1N1CCC(N2CCC(N3CCOCC3)CC2)CC1 [compound 426, N-(5-((6-((R)-3-(2,4-difluorophenyl)isoxazolidine-2-yl)pyrimidine-4-yl)amino)-4-methoxy-2-(4-morpholino-[1,4'-bipiperidine]-1'-yl)phenyl)acrylamide]
17 | B (50 nM ≤ GI50 < 500 nM) | C=CC(=O)Nc1cc(Nc2cc(N3OCC[C@@H]3c3ccc(C)nc3)ncn2)c(OC)cc1N1CCC(N(C)CCOC)CC1 [Example 229, N-(4-methoxy-2-(4-((2-methoxyethyl)(methyl)amino)piperidine-1-yl)-5-((6-((R)-3-(6-methylpyridine-3-yl)isoxazolidine-2-yl)pyrimidine-4-yl)amino)phenyl)acrylamide]
18 | C (500 nM ≤ GI50 < 5000 nM) | C=CC(=O)Nc1cc(Nc2cc(N3OCC[C@@H]3c3ccc(Cl)c(Cl)c3F)ncn2)c(OC)cc1N1CC[C@H](N2CCOCC2)C1 [Example 295, N-(5-((6-((R)-3-(3,4-dichloro-2-fluorophenyl)isoxazolidine-2-yl)pyrimidine-4-yl)amino)-4-methoxy-2-((S)-3-morpholinopyrolidine-1-yl)phenyl)acrylamide]
19 | A (GI50 < 50 nM) | C=CC(=O)Nc1cc(Nc2cc(N3OCC[C@@H]3c3cccc(F)c3Cl)ncn2)c(OC)cc1N1CCC(N2CCN(C3COC3)CC2)CC1 [Example 201, N-(5-((6-((R)-3-(2-chloro-3-fluorophenyl)isoxazolidine-2-yl)pyrimidine-4-yl)amino)-4-methoxy-2-(4-(4-(oxetane-3-yl)piperazine-1-yl)piperidine-1-yl)phenyl)acrylamide]
20 | A (GI50 < 50 nM) | C=CC(=O)Nc1cc(Nc2cc(N3OCC[C@@H]3c3cccc(Cl)c3)ncn2)c(OC)cc1N1CCC(N2CCC(N(C)C)CC2)CC1 [compound 414, N-(5-((6-((R)-3-(3-chlorophenyl)isoxazolidine-2-yl)pyrimidine-4-yl)amino)-2-(4-(dimethylamino)-[1,4'-bipiperidine]-1'-yl)-4-methoxyphenyl) acrylamide]
21 | A (GI50 < 50 nM) | C=CC(=O)Nc1cc(Nc2cc(N3OCC[C@@H]3c3ccc(F)c(Cl)c3)ncn2)c(OC)cc1N1CCC(N2C[C@@H](C)N(CC)[C@@H](C)C2)CC1 [compound 370, N-(5-((6-((R)-3-(3-chloro-4-fluorophenyl)isoxazolidine-2-yl)pyrimidine-4-yl)amino)-2-(4-((3S,5R)-4-ethyl-3,5-dimethylpiperazine-1-yl)piperidine-1-yl)-4-methoxyphenyl) acrylamide]
22 | B (50 nM ≤ GI50 < 500 nM) | C=CC(=O)Nc1cc(Nc2cc(N3OCC[C@@H]3c3c(F)ccc(F)c3F)ncn2)c(OC)cc1N1CC[C@@H](N(C)C)C1 [compound 630, N-(2-((R)-3-(dimethylamino)pyrolidine-1-yl)-4-methoxy-5-((6-((R)-3-(2,3,6-trifluorophenyl)isoxazolidine-2-yl)pyrimidine-4-yl)amino)phenyl)acrylamide]

Row | Compound | Ba/F3 (NPH) Activity
23 | C=CC(=O)Nc1cc(Nc2cc(N3OCC[C@@H]3c3cccc(C#N)c3)ncn2)c(OC)cc1N1CCC(N2CC3CCC(C2)N3C2CC2)CC1 [Example 133, N-(5-((6-((R)-3-(3-cyanophenyl)isoxazolidine-2-yl)pyrimidine-4-yl)amino)-2-(4-(8-cyclopropyl-3,8-diazabicyclo[3.2.1]octan-3-yl)piperidine-1-yl)-4-methoxyphenyl) acrylamide] | B (50 nM ≤ GI50 < 500 nM)
